Laboratory results published in ChEMBL document CHEMBL4483862, “Open-source discovery of chemical leads for next-generation chemoprotective antimalarials” (2018).

Tested on: Plasmodium berghei
Experiment: Luciferase/luciferin-expressing antifolate-resistant parasites were used to infect a culture of HepG2 cells that were pre-incubated with compounds. Infected hepatocytes emit light due to the luciferase reaction. Assay results are presented as the percent inhibition of light emission compared to control. […]
Format: functional
Details: sporozoite; for IC90: read-out: LUCIFERASE INFECTION ASSAY - IC90
[1] = read-out: LUCIFERASE INFECTION ASSAY - IC50

Row | Compound | IC90 | IC50 [1] | further results
1 | CCOc1ccc(NC(=S)N/N=C/c2cc(Cl)cc([N+](=O)[O-])c2O)cc1 | > 10 µM | – | IC50 (HEPG2TOX_HILL_SLOPE 8.71, HEPG2TOX_R_SQUARED 0.133, PBLUC_HILL_SLOPE 2.29, PBLUC_R_SQUARED 0.38, read-out: LUCIFERASE INFECTION ASSAY - IC50): 6.7 µM
2 | CSc1nnc(-c2ccc(C(C)(C)C)cc2)n1-c1ccc(Cl)cc1 | > 9.22 µM | – | IC50 (PBLUC_HILL_SLOPE 1.19, PBLUC_R_SQUARED 0.789, read-out: LUCIFERASE INFECTION ASSAY - IC50): > 9.22 µM
3 | Cc1ccc(NC(=O)c2cccc(-c3ccc(O)cc3)c2)cc1Cl | 4.26 µM | – | IC50 (HEPG2TOX_HILL_SLOPE 17.8, HEPG2TOX_R_SQUARED 0.895, PBLUC_HILL_SLOPE 28.1, PBLUC_R_SQUARED 0.516, read-out: LUCIFERASE INFECTION ASSAY - IC50): 3.94 µM
4 | COc1ccc(-c2cncc(-c3ccc(O)c(OC)c3)n2)cc1 | 0.463 µM | – | IC50 (HEPG2TOX_HILL_SLOPE 11.5, HEPG2TOX_R_SQUARED 0.964, PBLUC_HILL_SLOPE 4.2, PBLUC_R_SQUARED 0.828, read-out: LUCIFERASE INFECTION ASSAY - IC50): 0.274 µM
5 | Cc1ccc(CN(CCc2ccccc2)Cn2nc(CCC(N)=O)n(C3CC3)c2=S)s1 | > 10 µM | > 10 µM | –
6 | CC/N=c1\scc(-c2cc(C)c(C)cc2C)n1/N=C/c1c[nH]c2ccccc12 | 6.13 µM | – | IC50 (PBLUC_HILL_SLOPE 4.53, PBLUC_R_SQUARED 0.847, read-out: LUCIFERASE INFECTION ASSAY - IC50): 3.77 µM
7 | COc1ccc(Sc2ccc(NC(=O)C(C)n3ccnc3)cc2Cl)cc1 (stereo not given) | > 10 µM | > 10 µM | –
8 | O=C(COc1ccccc1C(=O)NCc1ccccc1)NC(c1ccc(F)cc1)c1cccs1 (stereo not given) | > 10 µM | 8.41 µM | –
9 | COc1ccc(-n2cnnc2SCC(=O)NC(=O)NC2CCCC2)cc1 | > 10 µM | – | IC50 (FFLUC_HILL_SLOPE 14.6, FFLUC_R_SQUARED 0.0899, read-out: LUCIFERASE INFECTION ASSAY - IC50): > 10 µM
10 | O=c1c(Cl)c(Cl)cnn1Cc1nc2cc(Cl)ccc2n1Cc1ccccc1 | > 10 µM | – | IC50 (FFLUC_HILL_SLOPE 21.9, FFLUC_R_SQUARED 0.587, HEPG2TOX_HILL_SLOPE 12.6, HEPG2TOX_R_SQUARED 0.77, read-out: LUCIFERASE INFECTION ASSAY - IC50): > 10 µM
11 | Cc1c(C(=O)NC2CCN(Cc3ccccc3)C2)oc2c(Cl)cccc12 (stereo not given) | > 10 µM | > 10 µM | –
12 | CN1N=C2c3ccccc3CCC2C1c1ccc(F)cc1 (stereo not given) | 5.64 µM | – | IC50 (PBLUC_HILL_SLOPE 1.42, PBLUC_R_SQUARED 0.884, read-out: LUCIFERASE INFECTION ASSAY - IC50): 1.2 µM
13 | Cc1cc(NC(=O)N2CCN(Cc3sc4ccccc4c3Cl)CC2)no1 | 1.17 µM | – | IC50 (PBLUC_HILL_SLOPE 1.04, PBLUC_R_SQUARED 0.858, read-out: LUCIFERASE INFECTION ASSAY - IC50): 0.141 µM
14 | N#Cc1ccc(CN2CCN(c3ccc(-c4nc5ccccc5[nH]4)cn3)CC2)cc1 | > 10 µM | > 10 µM | –
15 | CCOc1ccc(NC(=O)CCOc2cccc(C)c2)cc1 | > 11 µM | > 11 µM | –
16 | O=C(Cc1ccccc1)OC1(C(F)(F)F)C(=O)Nc2c1ccc1ccccc21 (stereo not given) | > 10 µM | > 10 µM | –
17 | Cc1ccc(C2Nc3ccccc3C(=O)N2C(C)c2ccccc2)o1 (stereo not given) | > 10 µM | > 10 µM | –
18 | CC(=O)c1c(C)[nH]c(C(=O)OCC(=O)/C=C2\N(C)c3ccccc3C2(C)C)c1C | > 10 µM | – | IC50 (HEPG2TOX_HILL_SLOPE 1.65, HEPG2TOX_R_SQUARED 0.38, PBLUC_HILL_SLOPE 17.8, PBLUC_R_SQUARED 0.202, read-out: LUCIFERASE INFECTION ASSAY - IC50): 9.63 µM
19 | Cc1ccc(CSc2ccc([N+](=O)[O-])c3nonc23)cc1 | > 11 µM | – | IC50 (HEPG2TOX_HILL_SLOPE 7.3, HEPG2TOX_R_SQUARED 0.39, read-out: LUCIFERASE INFECTION ASSAY - IC50): > 11 µM
20 | CSC(SC)=C(C#N)S(=O)(=O)C(C)C | > 13.1 µM | > 13.1 µM | –
21 | NC(=O)c1cccc(-c2cn3c(-c4ccccc4)cnc3cn2)c1 | > 10.5 µM | – | IC50 (HEPG2TOX_HILL_SLOPE 0.15, HEPG2TOX_R_SQUARED 0.654, PBLUC_HILL_SLOPE 0.762, PBLUC_R_SQUARED 0.254, read-out: LUCIFERASE INFECTION ASSAY - IC50): > 10.5 µM
22 | CO/N=C1\CCCc2c(C(=O)NNS(=O)(=O)c3ccccc3Cl)sc(SC)c21 | > 7.17 µM | > 7.17 µM | –
23 | O=C(/C=C/c1ccccc1[N+](=O)[O-])OCc1nc2ccccc2s1 | > 10 µM | – | IC50 (PBLUC_HILL_SLOPE 15.4, PBLUC_R_SQUARED 0.138, read-out: LUCIFERASE INFECTION ASSAY - IC50): > 10 µM

Row | Compound | IC90 | IC50 [1] | further results
24 | CCCCNC(=O)c1c(NC(=O)c2ccc(C(F)(F)F)cc2)nc2ccccn12 | 0.365 µM | – | IC50 (FFLUC_HILL_SLOPE 8.16, FFLUC_R_SQUARED 0.656, HEPG2TOX_HILL_SLOPE 0.864, HEPG2TOX_R_SQUARED 0.784, PBLUC_HILL_SLOPE 12.7, PBLUC_R_SQUARED 0.564, read-out: LUCIFERASE INFECTION ASSAY - IC50): 0.306 µM
25 | CC(C(=O)NCc1ccco1)c1ccc2c(c1)[nH]c1ccc(Cl)cc12 (stereo not given) | > 9.35 µM | – | IC50 (PBLUC_HILL_SLOPE 15.7, PBLUC_R_SQUARED 0.128, read-out: LUCIFERASE INFECTION ASSAY - IC50): > 9.35 µM
26 | Cc1ccc(-n2c(C)cc(C(=O)Cn3nc(C)c(C)c(C#N)c3=O)c2C)cc1C | > 10 µM | – | IC50 (HEPG2TOX_HILL_SLOPE 1.5, HEPG2TOX_R_SQUARED 0.806, PBLUC_HILL_SLOPE 3.65, PBLUC_R_SQUARED 0.115, read-out: LUCIFERASE INFECTION ASSAY - IC50): 9.8 µM
27 | Cc1ccc(S(=O)(=O)NC(=O)c2c(C(=O)NS(=O)(=O)c3ccc(C)cc3)c(C)n(-c3ccc(N(C)C)cc3)c2C)cc1 | > 10 µM | > 10 µM | –
28 | Cn1nc(-c2ccc(-c3ccnc(SCC(=O)c4ccccc4)n3)s2)cc1C(F)(F)F | > 7.17 µM | – | IC50 (FFLUC_HILL_SLOPE 0.544, FFLUC_R_SQUARED 0.175, read-out: LUCIFERASE INFECTION ASSAY - IC50): > 7.17 µM
29 | O=C(NNC(=O)c1cc2c(s1)CCC2)c1csc(COc2ccc(F)cc2)n1 | 8.59 µM | – | IC50 (PBLUC_HILL_SLOPE 2.84, PBLUC_R_SQUARED 0.402, read-out: LUCIFERASE INFECTION ASSAY - IC50): 3.96 µM
30 | O=C(CSc1nnc(-c2ccco2)n1-c1ccc(OCc2ccccc2)cc1)c1ccc(Cl)cc1 | > 6.57 µM | > 6.57 µM | –
31 | Cn1nc(-c2ccc(S(=O)(=O)Oc3cccc([N+](=O)[O-])c3)s2)cc1C(F)(F)F | > 7.61 µM | > 7.61 µM | –
32 | O=C(c1cc(C(=O)N2CCCC2)c2nc3scc(-c4ccccc4)c3c(=O)n2c1)c1ccccc1O | > 10 µM | > 10 µM | –
33 | Cc1ccc2nc(NC(=O)c3ccc(F)cc3F)c(C(=O)NC3CCCC3)n2c1 | 2.97 µM | – | IC50 (HEPG2TOX_HILL_SLOPE 1.63, HEPG2TOX_R_SQUARED 0.945, PBLUC_HILL_SLOPE 15.6, PBLUC_R_SQUARED 0.398, read-out: LUCIFERASE INFECTION ASSAY - IC50): 2.58 µM
34 | CCCCCCCCc1nnc(NC(=O)c2nccnc2N)s1 | 4.58 µM | – | IC50 (PBLUC_HILL_SLOPE 9.5, PBLUC_R_SQUARED 0.438, read-out: LUCIFERASE INFECTION ASSAY - IC50): 3.63 µM
35 | COc1ccc(C(C)(C)C)cc1NC(=O)c1ccc(NC(=O)Nc2ccccc2)s1 | 5.68 µM | 5.57 µM | –
36 | CC1C/C(=C/c2ccc(Cl)cc2)C2=NN(C(=O)c3ccc4ncccc4c3)C(c3ccc(Cl)cc3)C2C1 (stereo not given) | 6.04 µM | – | IC50 (FFLUC_HILL_SLOPE 1.77, FFLUC_R_SQUARED 0.609, HEPG2TOX_HILL_SLOPE 4.89, HEPG2TOX_R_SQUARED 0.557, PBLUC_HILL_SLOPE 71.4, PBLUC_R_SQUARED 0.509, read-out: LUCIFERASE INFECTION ASSAY - IC50): 5.86 µM
37 | Cc1ccc(-c2cc3nc(SCCOc4ccccc4F)n(Cc4ccccc4)c(=O)c3s2)cc1 | > 10 µM | > 10 µM | –
38 | Cc1cc(/C=C(\C#N)c2nnc(N3CCOCC3)n2-c2ccccc2)c(C)n1-c1cccc(C(F)(F)F)c1 | > 10 µM | – | IC50 (HEPG2TOX_HILL_SLOPE 0.204, HEPG2TOX_R_SQUARED 0.0193, PBLUC_HILL_SLOPE 1.7, PBLUC_R_SQUARED 0.432, read-out: LUCIFERASE INFECTION ASSAY - IC50): > 10 µM
39 | Cc1ccc(/C=C(\C#N)c2nc(=O)c3c4c(sc3[nH]2)CC(C)CC4)o1 (stereo not given) | > 10 µM | > 10 µM | –
40 | CCOC(=O)c1csc(-c2sc(SC)c(C(C)=O)c2C)n1 | > 9.66 µM | > 9.66 µM | –
41 | CC1CN(Cc2csc(Nc3ccccc3)n2)CC(C)O1 (stereo not given) | 9.23 µM | – | IC50 (PBLUC_HILL_SLOPE 20.5, 3.85, PBLUC_R_SQUARED 0.234, 0.496, read-out: LUCIFERASE INFECTION ASSAY - IC50): 7.33 µM
42 | COc1ccc(C(=O)Nc2ccc(N3CCOCC3)cc2)cn1 | > 10 µM | > 10 µM | –
43 | O/N=C/c1ncc(C(F)(F)F)cc1Sc1ccc(Cl)cc1 | > 9.92 µM | – | IC50 (FFLUC_HILL_SLOPE 8, FFLUC_R_SQUARED 0.0374, HEPG2TOX_HILL_SLOPE 8.44, HEPG2TOX_R_SQUARED 0.673, PBLUC_HILL_SLOPE 11.8, PBLUC_R_SQUARED 0.204, read-out: LUCIFERASE INFECTION ASSAY - IC50): 9.28 µM
44 | O=C(NC(CN1CCCC1)c1ccccc1)c1ccc(N2CCCC2=O)cc1 (stereo not given) | > 10 µM | – | IC50 (HEPG2TOX_HILL_SLOPE 1.34, HEPG2TOX_R_SQUARED 0.227, PBLUC_HILL_SLOPE 0.905, PBLUC_R_SQUARED 0.0409, read-out: LUCIFERASE INFECTION ASSAY - IC50): > 10 µM
45 | CCN(CC)S(=O)(=O)c1ccc(Cl)c(NC(=O)CSc2nnc(-c3ccc(F)cc3)c3ccccc23)c1 | > 10 µM | – | IC50 (FFLUC_HILL_SLOPE 11.3, FFLUC_R_SQUARED 0.167, read-out: LUCIFERASE INFECTION ASSAY - IC50): > 10 µM
